Measured values from patent US20060073216A1, “Compositions and methods for control of bovine mastitis” (Solution Biosciences, Inc., priority 2002, published 2006).

Assay: Solubility in water
Format: physicochemical
Details: water at 75° F. (ca. 24° C.), expressed as Cl2

solubility in water | Compound
about 405 ppm | CC1(C)C(=O)N(Br)C(=O)N1Br [1,3-dibromo-5,5dimethylhydantoin, 1,3-dibromo-5,5-dimethylhydantoin]
about 890 ppm | CC1(C)C(=O)N(Cl)C(=O)N1Br [N,N′-bromochloro-5,5-dimethylhydantoin]
